# Laboratory results taken from patent publication US20200046658A1, “PHARMACEUTICAL COMPOSITION FOR INDUCING EXERCISE MIMETIC EFFECT” (CELLVERTICS CO., LTD., priority 2015, published 2020).
# Structures can show the parent of a compound that is named as a salt. Marks after values point to notes of the source that are not given here.
# Experiments:
# [1] = test system: spontaneously hypertensive rat (SHR); experiment: Echocardiographic examination of spontaneously hypertensive rats; format: in vivo
# From the text: Spontaneously hypertensive rat (SHR) is an animal model in which hereditary hypertension is expressed. It is known that the hypertension which is the most similar to human primary hypertension is expressed. In SHR, blood pressure begins to increase around 4-6 weeks of age and hypertension is developed seriously at 8-12 weeks. SHR is widely used in studies as an animal mode of primary hypertension, especially hypertension with cardiac lesions, because it is frequently accompanied damage to the hypertensive target organs, such as cardiac hypertrophy, heart failure, renal disorder, etc.
# 3-week-old spontaneously hypertensive rats (SHRs) were kept under a standardized condition (21° C., 41-62% humidity) with periodic light/dark (10/14 hour) cycles and were freely allowed to access water and laboratory feed. All the animal experiments were approved by the Korea University Institutional Animal Care and Use Committee (KUIACUC-2012-100) and were in accordance with the Guideline for the Care and Use of Laboratory Animals.
# After anesthetization by intramuscular injection of Zoletil (8 mg/kg) and xylazine (2 mg/kg), the rats were laid on their left sides and M-mode echo images were obtained. The examination was conducted using Vivid 7 (GE Medical Systems, Milwaukee, Wis., USA) equipped with a 12-MHz transducer. After acquiring optimized 2-dimensional short-axis images for the left ventricle at the papillary muscle level, M-mode tracing and echocardiographic images were recorded at a speed of 100 mm/s.
# [2] = Body weight, cardiac weight and abdominal fat of SHR; format: in vivo, rat; settings: 8 weeks old, drug in drinking water for 4 weeks (midodrine 0.2 mg/kg/day, atenolol 1 mg/kg/day), mean±SD
# Procedure: (§1) The animals of the group I were anesthetized at 4 weeks of age while the rats of other groups were anesthetized at 8 weeks of age after being treated for 4 weeks. […] The recovered organs were kept in a refrigerator at −80° C. or in 10% formalin for fixation.
# Body weight and abdominal fat were measured and compared for the midodrine-administered rat (II), atenolol-administered rat (III) and 8-week-old unadministered hypertension control group rat (IV).
# [3] = test system: spontaneously hypertensive rat (SHR); experiment: Serum inflammatory markers, reactive oxygen species and adiponectin in SHR; format: in vivo; settings: 8 weeks old, drug for 4 weeks, mean±SD; for ROS: blood
# Procedure: as §1
# The concentration of total cholesterol, HDL cholesterol, LDL cholesterol and triglyceride was measured by enzymatic colorimetry (Roche Diagnostics GmbH; Mannheim, Germany). Also, serum assays for inflammatory markers were conducted using a […] cytokine Milliplex panel (Millipore Corporation, Billerica, Mass., USA) as recommended for cytokines (interleukin (IL)-1α, IL-1β, IL-6, IL-4, IL-10 and TNF-α). Acquisition was performed on a Luminex 100 platform and data analysis was carried out using the Multiplex analyzer. Reactive oxygen species and adiponectin were measured using the ELISA kit (MBS815494, Mybiosource). The measured blood adiponectin level was calibrated for the visceral fat weight (g).
# [4] = test system: aorta and cardiac muscle tissue; experiment: mRNA expression of AT1R, eNOS, SOD, gp91-phox, TNFα in aorta and cardiac muscle of SHR; format: in vivo, rat
# Procedure: as §1
# Full-length RNA was extracted using the TriZol reagent according to the manufacturer's instructions. Complementary DNA was synthesized from the full-length RNA using the Power cDNA Synthesis kit and polymerase chain reaction was conducted for angiotensin II type I receptor (AT1R), endothelial nitric oxide synthase (eNOS), superoxide dismutase (SOD), gp91-phox (NADPH), tumor necrosis factor-alpha (TNF-α) and GAPDH using the PCR Premix kit.
# The mRNA expression level of the genes related with vasoconstriction, nitric oxide production, oxidative stress and inflammation in the aorta and cardiac muscle tissue was investigated by […] for the 4-week-old basal rat (I), midodrine-administered rat (II), atenolol-administered rat (III) and 8-week-old unadministered control group rat (IV).
# [5] = test system: spontaneously hypertensive rat (SHR); experiment: ATP level in tissues of SHR by ELISA; format: in vivo; settings: versus control group SHRs, FIG. 5
# Procedure: 0.02 g of liver tissue was homogenized in 500 μL of PBS. The homogenate was centrifuged at 1500×g (or 5000 rpm) for 15 minutes and the supernatant was subjected to measurement. After pouring 100 μL of a reference material or sample to an adequate well of an antibody-precoated microtiter plate, 10 μL of the residual solution was added to the sample. After adding 50 μL of a conjugate to each well and mixing, the plate was covered with a lid and incubated at 37° C. for 1 hour. After adding 50 μL of substrate A or B to each well, incubation was conducted at 37° C. for 15 minutes. After adding a stop solution to each well, optical density was measured at 450 nm using a microplate reader.
# The level of ATP in the heart, skeletal muscle and liver was measured by ELISA for the 4-week-old basal rat (I), midodrine-administered rat (II), atenolol-administered rat (III) and 8-week-old unadministered control group rat (IV).
# [6] = test system: mouse skeletal muscle cells (C2C12); experiment: Western blot of p-AMPK, PPAR-δ and PGC-1α in differentiating C2C12 cells; format: cell-based; settings: versus untreated control
# Procedure: C2C12 cells (mouse skeletal cell line) were seeded onto a 6-well plate in a CO2 incubator at 37° C. and cultured in a DMEM medium containing 10% FBS and 1% antibiotics to about 80% confluency. After replacing the medium with one containing 1% FBS, differentiation was conducted for 3 days. Then, after replacing the medium with one containing 1% FBS and then treating with a drug, experiment was conducted 24 hours later.
# The protein content of the extract was measured by the Bradford's method. The extracted proteins (20-30 μg) were loaded on a 10% SDS-PAGE gel. Western blot assay was conducted using primary antibodies for AMPKα, phosphorylated AMPKα, PPARδ and PGC-1α. Images were obtained manually using the Kodak GBX developer and a fixative reagent.
# Specifically, after treating differentiating C2C12 cells with the compounds at different concentrations (10 μM, 30 μM, 50 μM), the expression of activated (phosphorylated) AMPK (p-AMPK), PPAR-δ and PGC-1α was investigated by western blot.
# [7] = SHR, 8 weeks old, drug in drinking water for 4 weeks (midodrine 0.2 mg/kg/day, atenolol 1 mg/kg/day), mean±SD
# [8] = C2C12, over 10 μM, 30 μM, 50 μM
smiles,measurement,setting,value
CC(C)NCC(O)COc1ccc(CC(N)=O)cc1 (stereo not drawn) [Atenolol],left ventricular performance,"[1]; 8-week-old SHR, versus unadministered control (group IV)",higher
same,Diastolic left ventricular diaphragm,[1]; [7],1.50 ± 0.13^a mm
same,Diastolic left ventricular inner size,[1]; [7],6.33 ± 0.35^a mm
same,Diastolic left ventricular wall,[1]; [7],1.67 ± 0.16 mm
same,Left ventricular ejection fraction,[1]; [7],82.00 ± 5.31^a %
same,Left ventricular fractional shortening,[1]; [7],45.70 ± 5.82^a %
same,Left ventricular mass according to ASE,[1]; [7],1.10 ± 0.07^a g
same,Systolic left ventricular inner size,[1]; [7],3.43 ± 0.28^a mm
same,Body weight,[2],296.46 ± 16.73^b g
same,Cardiac weight,[2],1.47 ± 0.15^a g
same,Body weight,[2]; listed as atenolol,highest
same,Adiponectin,[3]; blood level calibrated for the visceral fat weight (g),6136.5 ± 574.7^bc ng/ml/g
same,ROS,[3],223.1 ± 45.4^a ng/ml
same,ROS,[3]; listed as atenolol,lower
same,IL-1α,[3]; serum,5.51 ± 2.64^c μg/ml
same,IL-1β,[3]; serum,2.02 ± 1.53^a μg/ml
same,IL-4,[3]; serum,2.94 ± 0.90^b μg/ml
same,IL-6,[3]; serum,5.62 ± 1.42^a μg/ml
same,IL-10,[3]; serum,15.33 ± 2.79^b μg/ml
same,TNF-α,[3]; serum,8.35 ± 1.36^b μg/ml
same,IL-1α,"[3]; serum, listed as atenolol",significantly increased
same,IL-4,"[3]; serum, listed as atenolol",slightly higher
same,IL-10,"[3]; serum, listed as atenolol",slightly higher
same,TNF-α,"[3]; serum, listed as atenolol",significantly increased
same,TNFα expression in the aorta,"[4]; among groups I-IV, FIG. 3A",moderate
same,expression of angiotensin II AT1R mRNA in the cardiac muscle,"[4]; among groups I-IV, FIG. 3B",moderate
same,expression of angiotensin II AT1R mRNA in the aorta,"[4]; versus control groups I and IV, FIG. 3A",lower
same,ATP level in heart tissue,[5],higher
"COc1ccc(OC)c(C(O)CNC(=O)C(N)Cc2ccccc2)c1 (stereo not drawn) [Compound 5, 2-amino-N-(2-(2,5-dimethoxyphenyl)-2-hydroxyethyl)-3-phenylpropanamide]",expression of PPAR-δ,"[6]; C2C12, 30 μM",significantly increased
same,expression of p-AMPK,"[6]; C2C12, 30 μM",significantly increased
"COc1ccc(OC)c(C(O)CNC(=O)C(C)N)c1 (stereo not drawn) [Compound 7, 2-amino-N-(2-(2,5-dimethoxyphenyl)-2-hydroxyethyl)propanamide]",expression of p-AMPK,"[6]; C2C12, 10 μM",significant increase
same,expression of PPAR-δ,"[6]; C2C12, 30 μM",significant increase
same,expression of p-AMPK,"[6]; C2C12, 50 μM",significant increase
same,expression of PPAR-δ,[6]; [8],concentration-dependent increase
same,expression of p-AMPK,[6]; [8],concentration-dependent increase
"COc1cc(OC)cc(C(O)CNC(=O)CN)c1 (stereo not drawn) [Compound 8, 2-amino-N-(2-(3,5-dimethoxyphenyl)-2-hydroxyethyl)acetamide hydrochloride]",expression of PGC-1α,"[6]; C2C12, 50 μM",significantly increased
same,expression of p-AMPK,"[6]; C2C12, 50 μM",significantly increased
same,expression of PGC-1α,[6]; [8],overall increase
same,expression of PPAR-δ,[6]; [8],overall increase
same,expression of p-AMPK,[6]; [8],overall increase
"CCc1ccc(OC)c(C(O)CNC(=O)CN)c1 (stereo not drawn) [Compound 9, 2-amino-N-(2-(5-ethyl-2-methoxyphenyl)-2-hydroxyethyl)acetamide hydrochloride]",expression of PGC-1α,"[6]; C2C12, 30 μM",significantly increased
same,expression of p-AMPK,"[6]; C2C12, 30 μM",significantly increased
same,expression of PGC-1α,"[6]; C2C12, 50 μM",significantly increased
same,expression of p-AMPK,"[6]; C2C12, 50 μM",significantly increased
same,expression of PGC-1α,[6]; [8],overall increase
same,expression of PPAR-δ,[6]; [8],overall increase
same,expression of p-AMPK,[6]; [8],overall increase
"NCC(=O)NCC(O)c1ccccc1 (stereo not drawn) [Compound 10, 2-amino-N-(2-hydroxy-2-phenylethyl)acetamide hydrochloride]",expression of PPAR-δ,"[6]; C2C12, 10 μM",significantly increased
same,expression of p-AMPK,"[6]; C2C12, 30 μM",significantly increased
same,expression of PPAR-δ,"[6]; C2C12, 50 μM",significantly increased
same,expression of p-AMPK,"[6]; C2C12, 50 μM",significantly increased
